Measured values from patent US10563263B2, “Genetic polymorphisms associated with statin response and cardiovascular diseases, methods of detection and uses thereof” (CELERA CORPORATION, priority 2010, dated 2020).

Test system: CHD
Experiment: Meta-analysis of CARE and WOSCOPS combined, synergy index, CHD endpoint
Type: in vivo, human
Text: Tables 4-5 provide meta-analyses of CARE and WOSCOPS combined (2nd section of each table) for two endpoints (CHD and CVD) and three genetic models (dominant, recessive, and additive), as well as logistic regression analyses of CARE (3rd section of each table) and WOSCOPS (4th section of each table) individually.
Tables 12 and 17 provide results of meta-analysis of the CARE and WOSCOPS sample sets combined by direct genotyping and by imputing genotypes.
“P” indicates the p-value, and “P(R)” (or “P.R.”) indicates the p-value random effect. Both of these are p-values corresponding to a statistical test of whether the combined synergy index is equal to one but use different assumptions to derive the p-value. “P” is calculated using a fixed effects model, and “P(R)” is calculated using a random effects model.
“OR” indicates the odds ratio (synergy index) calculated from a fixed effects model, and “OR(R)” (or “OR.R.”) indicates the odds ratio (synergy index) calculated from a random effects model.

[1] = rs10105871 allele C DOMINANT Imputed
[2] = rs10116807 allele A GENOTYPIC Imputed
[3] = rs11178575 allele C GENOTYPIC Imputed
[4] = rs11178575 allele C RECESSIVE Imputed
[5] = rs11178577 allele T GENOTYPIC Imputed
[6] = rs11178577 allele T RECESSIVE Imputed
[7] = rs11178583 allele A DOMINANT Imputed
[8] = rs11178589 allele T DOMINANT Imputed
[9] = rs11178594 allele C DOMINANT Imputed
[10] = rs11178602 allele T DOMINANT Imputed
[11] = rs11178648 allele T DOMINANT Imputed
[12] = rs11198877 allele T DOMINANT Imputed
[13] = rs11198942 allele T DOMINANT Imputed
[14] = rs11221075 allele A ADDITIVE Imputed
[15] = rs11242020 allele T DOMINANT Imputed
[16] = rs11242021 allele T DOMINANT Imputed
[17] = rs11242022 allele T DOMINANT Imputed
[18] = rs11242023 allele T DOMINANT Imputed
[19] = rs11576627 allele T ADDITIVE Imputed
[20] = rs11576627 allele T DOMINANT Imputed
[21] = rs11602189 allele A DOMINANT Imputed
[22] = rs11605163 allele A DOMINANT Imputed
[23] = rs11615214 allele G ADDITIVE Imputed
[24] = rs11615214 allele G GENOTYPIC Imputed
[25] = rs11642394 allele C DOMINANT Imputed
[26] = rs11644943 allele A ADDITIVE Imputed
[27] = rs11656608 allele T DOMINANT Imputed
[28] = rs11661309 allele A ADDITIVE Imputed
[29] = rs11661309 allele A DOMINANT Imputed
[30] = rs11666131 allele A ADDITIVE Imputed
[31] = rs11743355 allele C ADDITIVE Imputed
[32] = rs11743355 allele C DOMINANT Imputed
[33] = rs11746806 allele T ADDITIVE Imputed
[34] = rs11746806 allele T DOMINANT Imputed
[35] = rs11746959 allele T ADDITIVE Imputed
[36] = rs11746959 allele T DOMINANT Imputed
[37] = rs11749272 allele T DOMINANT Imputed
[38] = rs11901899 allele A DOMINANT Imputed
[39] = rs11926319 allele G ADDITIVE Imputed
[40] = rs11926319 allele G DOMINANT Imputed
[41] = rs11956952 allele C DOMINANT Imputed
[42] = rs12025826 allele G DOMINANT Imputed
[43] = rs12153185 allele T DOMINANT Imputed
[44] = rs12182651 allele T ADDITIVE Imputed
[45] = rs12182651 allele T DOMINANT Imputed
[46] = rs12193568 allele G DOMINANT Imputed
[47] = rs12264914 allele C DOMINANT Imputed
[48] = rs12307767 allele C DOMINANT Imputed
[49] = rs12407412 allele C ADDITIVE Imputed
[50] = rs12407412 allele C DOMINANT Imputed
[51] = rs12420184 allele G DOMINANT Imputed
[52] = rs12422750 allele A DOMINANT Imputed
[53] = rs12446951 allele A ADDITIVE Imputed
[54] = rs12446951 allele A DOMINANT Imputed
[55] = rs12457400 allele G DOMINANT Imputed
[56] = rs12521291 allele G ADDITIVE Imputed
[57] = rs12526849 allele T ADDITIVE Imputed
[58] = rs12526849 allele T GENOTYPIC Imputed
[59] = rs12543110 allele G DOMINANT Imputed
[60] = rs12678600 allele A DOMINANT Imputed
[61] = rs12719415 allele T DOMINANT Imputed
[62] = rs12831292 allele G DOMINANT Imputed

Structure (SMILES): CC[C@H](C)C(=O)O[C@H]1C[C@H](O)C=C2C=C[C@H](C)[C@H](CC[C@@H](O)C[C@@H](O)CC(=O)O)[C@H]21 [Pravastatin, pravastatin]
- OR(R) (rs10067895 allele A DOMINANT Imputed): 0.5759
- Meta-analysis OR (rs10088505 allele A vs G (ref)): 1.61
- Meta-analysis OR (rs10088524, allele A1 G (non-ref), A2 A (ref), endpoint/model not given): 1.57
- Meta-analysis OR (rs10103297, allele A1 A (non-ref), A2 G (ref), endpoint/model not given): 2.03
- OR [1]: 1.6092
- OR(R) [1]: 1.6092
- OR [2]: 3.0952
- OR(R) [2]: 3.0952
- Meta-analysis OR (rs10120126 allele G vs A (ref)): 0.51
- Meta-analysis OR (rs10189905 allele C vs A (ref)): 0.52
- Meta-analysis OR (rs10500736 allele G vs A (ref)): 0.57
- Meta-analysis OR (rs10517923 allele A vs G (ref)): 1.61
- Meta-analysis OR (rs10814422 allele G vs A (ref)): 0.57
- Meta-analysis OR (rs10849442 allele A vs G (ref)): 0.57
- Meta-analysis OR (rs10875941, allele A1 G (non-ref), A2 A (ref), endpoint/model not given): 0.63
- Meta-analysis OR (rs10973013 allele A vs G (ref)): 0.55
- Meta-analysis OR (rs11076320 allele C vs A (ref)): 0.65
- Meta-analysis OR (rs11082492 allele A vs C (ref)): 1.55
- OR [3]: 1.8735
- OR(R) [3]: 1.8735
- OR [4]: 1.8848
- OR(R) [4]: 1.8848
- OR [5]: 1.87
- OR(R) [5]: 1.87
- OR [6]: 1.8884
- OR(R) [6]: 1.8884
- OR [7]: 0.5918
- OR(R) [7]: 0.5918
- OR [8]: 0.6108
- OR(R) [8]: 0.6108
- OR [9]: 0.5951
- OR(R) [9]: 0.5951
- OR [10]: 0.5942
- OR(R) [10]: 0.5942
- OR [11]: 0.576
- OR(R) [11]: 0.576
- OR [12]: 1.6068
- OR(R) [12]: 1.5927
- OR [13]: 1.6276
- OR(R) [13]: 1.6227
- OR [14]: 0.6561
- OR(R) [14]: 0.6561
- OR [15]: 0.5675
- OR(R) [15]: 0.5675
- OR [16]: 0.5753
- OR(R) [16]: 0.5753
- OR [17]: 0.5805
- OR(R) [17]: 0.5805
- OR [18]: 0.5807
- OR(R) [18]: 0.5807
- OR [19]: 1.6268
- OR(R) [19]: 1.6268
- OR [20]: 1.7055
- OR(R) [20]: 1.7055
- OR [21]: 0.6007
- OR(R) [21]: 0.6007
- OR [22]: 2.1075
- OR(R) [22]: 2.1075
- OR [23]: 0.6853
- OR(R) [23]: 0.6853
- OR [24]: 0.4648
- OR(R) [24]: 0.4738
- OR [25]: 1.4572
- OR(R) [25]: 1.4572
- OR [26]: 1.4247
- OR(R) [26]: 1.4247
- OR [27]: 0.6695
- OR(R) [27]: 0.6695
- OR [28]: 0.6163
- OR(R) [28]: 0.6163
- OR [29]: 0.5852
- OR(R) [29]: 0.5852
- OR [30]: 1.5364
- OR(R) [30]: 1.5364
- OR [31]: 0.1796
- OR(R) [31]: 0.1796
- OR [32]: 0.1817
- OR(R) [32]: 0.1817
- OR [33]: 0.2206
- OR(R) [33]: 0.2206
- OR [34]: 0.2253
- OR(R) [34]: 0.2253
- OR [35]: 0.1976
- OR(R) [35]: 0.1976
- OR [36]: 0.2007
- OR(R) [36]: 0.2007
- OR [37]: 0.5734
- OR(R) [37]: 0.5734
- OR [38]: 1.5824
- OR(R) [38]: 1.5824
- Meta-analysis OR (rs11925875 allele A vs G (ref)): 0.66
- OR [39]: 0.4343
- OR(R) [39]: 0.4343
- OR [40]: 0.4237
- OR(R) [40]: 0.4237
- OR [41]: 0.6564
- OR(R) [41]: 0.6564
- OR [42]: 1.5794
- OR(R) [42]: 1.5794
- OR [43]: 0.5759
- OR(R) [43]: 0.5759
- OR [44]: 2.1926
- OR(R) [44]: 2.1926
- OR [45]: 2.4795
- OR(R) [45]: 2.4795
- OR [46]: 1.7403
- OR(R) [46]: 1.8042
- OR [47]: 0.6442
- OR(R) [47]: 0.6442
- OR [48]: 0.6667
- OR(R) [48]: 0.6667
- OR [49]: 1.6268
- OR(R) [49]: 1.6268
- OR [50]: 1.7055
- OR(R) [50]: 1.7055
- OR [51]: 0.5645
- OR(R) [51]: 0.5645
- OR [52]: 0.6919
- OR(R) [52]: 0.6919
- OR [53]: 2.3413
- OR(R) [53]: 2.3413
- OR [54]: 2.3135
- OR(R) [54]: 2.3135
- OR [55]: 0.5884
- OR(R) [55]: 0.5884
- OR [56]: 0.6857
- OR(R) [56]: 0.6857
- OR [57]: 1.4208
- OR(R) [57]: 1.4208
- OR [58]: 2.0445
- OR(R) [58]: 2.0445
- OR [59]: 1.6401
- OR(R) [59]: 1.6401
- Meta-analysis OR (rs12556591 allele G vs A (ref)): 0.59
- Meta-analysis OR (rs12657484, allele A1 G (non-ref), A2 A (ref), endpoint/model not given): 1.49
- OR [60]: 0.6104
- OR(R) [60]: 0.6104
- OR [61]: 0.5662
- OR(R) [61]: 0.5662
- OR [62]: 0.5982
- OR(R) [62]: 0.5982
- Meta-analysis OR (rs13279522 allele G vs A (ref)): 0.62
- Meta-analysis OR (rs13314266 allele G vs A (ref)): 0.51
- Meta-analysis OR (rs13318232 allele G vs A (ref)): 0.52
- Meta-analysis OR (rs16861467, allele A1 G (non-ref), A2 A (ref), endpoint/model not given): 0.49
- Meta-analysis OR (rs17076974 allele A vs G (ref)): 1.40
- Meta-analysis OR (rs17546598 allele A vs G (ref)): 1.71
- Meta-analysis OR (rs17706237 allele G vs A (ref)): 1.69
- Meta-analysis OR (rs17716275, allele A1 A (non-ref), A2 G (ref), endpoint/model not given): 2.03
- Meta-analysis OR (rs72746987 allele A vs G (ref)): 0.40
